Results on two substances are retold here after patent publication US11191722B2, “Treatment of diabetes mellitus by long-acting formulations of insulins” (SANOFI, priority 2013, dated 2021).

This data set concerns patients with type 2 diabetes mellitus. The conditions noted are these: in vivo.

Source text: Hypoglycemia, occurrence of adverse events particularly treatment-emergent adverse events (TEAEs) and serious adverse events (SAEs), injection site reactions and hypersensitivity reactions.
Safety analyses were descriptive, based on the safety population.

Regarding insulin glargine [HOE901-U300], the “Death on-study during first 6 months” value is listed as 2 (0.5%) n (%) and the Death post-study is 0 n (%).

On to insulin glargine [Lantus], for which the “Death on-study during first 6 months” value is 2 (0.5%) n (%) and the Death post-study was 0 n (%).
